The assay deals with CFTR (WT-CFTR channels stably expressed in CHO cells) (Homo sapiens (Human), UniProt P13569). The assay can be described thus: IonWorks Quattro CFTR inhibitor assay (whole-cell population patch clamp, forskolin-activated current). In kind it is cell-based. The settings on record: inward current (−100 mV); CHO cells stably expressing WT-CFTR; CFTR activated with 10 μM forskolin; 10 min compound incubation. From the text:
CFTR activity can be quantified by electrophysiology methods, using the whole-cell configuration of the patch clamp technique (Hamill O, Marty A, Neher E, Sakmann B and Sigworth F. ‘Improved patch-clamp techniques for high resolution current recording from cells and cell-free membrane patches.’ Pflugers Archive 1981 391: 85-100). This assay directly measures the currents associated with chloride flow through CFTR channels whilst either maintaining or adjusting the transmembrane voltage. This assay can use either single glass micropipettes or parallel planar arrays to measure CFTR activity from native or recombinant cell systems. Currents measured using parallel planar arrays can be quantified using an appropriately equipped instrument such as the IonWorks Quattro (Molecular Devices Corporation, Sunnyvale, Calif.). The Quattro system can measure CFTR currents from either a single cell per recording well (HT configuration) or alternatively from a population of 64 cells per well (Population Patch Clamp PPC) (Finkel A, Wittel A, Yang N, Handran S, Hughes J, Costantin J. ‘Population patch clamp improves data consistency and success rates in the measurement of ionic currents.’ J Biomol Screen. 2006 August; 11(5):488-96).
Chinese hamster ovary (CHO) cells stably expressing WT-CFTR channels were used for the IonWorks Quattro experiments. Cells were maintained at 37° C. in 5% v/v CO2 at 100% humidity in MEM alpha medium supplemented with 10% (v/v) FCS, 100 U/mL Penicillin/Streptomycin, and 100 μg/L methotrexate. For experiments, cells were grown in 225 cm^2 tissue culture flasks until almost confluent. Cells were removed from the flask using trypsin-EDTA and resuspended in extracellular recording solution for immediate experimentation.
Cells, at a density of 1.5-2 million per mL, were placed on the Quattro system, added to the planar patch plate and seals allowed to establish for 5-10 mins. After assessing seal resistances (typically >50 MΩ), whole-cell access was obtained by perforation with 100 μg/mL amphotericin B. Baseline currents were measured by a pre-compound scan obtained by application of a voltage ramp from −100 to +100 mV. CFTR was activated by the addition of 10 μM forskolin to each of the 384 wells of the patch plate. After 5 min incubation the post-compound 1 currents were measured, again by application of a voltage ramp from −100 to +100 mV. Test compounds, diluted from 10 mM stocks in DMSO in extracellular solution were then added to the patch plate and were incubated for a further 10 min. The post-compound 2 currents were measured by the application of the same voltage ramp from −100 to +100 mV. The inhibition of CFTR was determined from the difference in current between the forskolin addition (post-compound 1) and the test compound (post-compound 2). This was determined at both −100 mV and +100 mV which represents the inward and outward current respectively.
Extracellular solution (ECS): 145 mM NaCl, 4 mM CsCl, 5 mM D-glucose, 10 mM TES, 1 mM CaCl2, 1 mM MgCl2, pH 7.4 NaOH
Intracellular solution (ICS): 113 mM L-Aspartic acid, 113 mM CsOH, 27 mM CsCl, 1 mM NaCl, 1 mM MgCl2, 1 mM EGTA, 10 mM TES. pH 7.2 with CsOH. Filter sterilized before use.
On the technique in general: In patch-clamp work, channel activity is measured electrically.
Sequence of CFTR (WT-CFTR channels stably expressed in CHO cells) (P13569 whole entry): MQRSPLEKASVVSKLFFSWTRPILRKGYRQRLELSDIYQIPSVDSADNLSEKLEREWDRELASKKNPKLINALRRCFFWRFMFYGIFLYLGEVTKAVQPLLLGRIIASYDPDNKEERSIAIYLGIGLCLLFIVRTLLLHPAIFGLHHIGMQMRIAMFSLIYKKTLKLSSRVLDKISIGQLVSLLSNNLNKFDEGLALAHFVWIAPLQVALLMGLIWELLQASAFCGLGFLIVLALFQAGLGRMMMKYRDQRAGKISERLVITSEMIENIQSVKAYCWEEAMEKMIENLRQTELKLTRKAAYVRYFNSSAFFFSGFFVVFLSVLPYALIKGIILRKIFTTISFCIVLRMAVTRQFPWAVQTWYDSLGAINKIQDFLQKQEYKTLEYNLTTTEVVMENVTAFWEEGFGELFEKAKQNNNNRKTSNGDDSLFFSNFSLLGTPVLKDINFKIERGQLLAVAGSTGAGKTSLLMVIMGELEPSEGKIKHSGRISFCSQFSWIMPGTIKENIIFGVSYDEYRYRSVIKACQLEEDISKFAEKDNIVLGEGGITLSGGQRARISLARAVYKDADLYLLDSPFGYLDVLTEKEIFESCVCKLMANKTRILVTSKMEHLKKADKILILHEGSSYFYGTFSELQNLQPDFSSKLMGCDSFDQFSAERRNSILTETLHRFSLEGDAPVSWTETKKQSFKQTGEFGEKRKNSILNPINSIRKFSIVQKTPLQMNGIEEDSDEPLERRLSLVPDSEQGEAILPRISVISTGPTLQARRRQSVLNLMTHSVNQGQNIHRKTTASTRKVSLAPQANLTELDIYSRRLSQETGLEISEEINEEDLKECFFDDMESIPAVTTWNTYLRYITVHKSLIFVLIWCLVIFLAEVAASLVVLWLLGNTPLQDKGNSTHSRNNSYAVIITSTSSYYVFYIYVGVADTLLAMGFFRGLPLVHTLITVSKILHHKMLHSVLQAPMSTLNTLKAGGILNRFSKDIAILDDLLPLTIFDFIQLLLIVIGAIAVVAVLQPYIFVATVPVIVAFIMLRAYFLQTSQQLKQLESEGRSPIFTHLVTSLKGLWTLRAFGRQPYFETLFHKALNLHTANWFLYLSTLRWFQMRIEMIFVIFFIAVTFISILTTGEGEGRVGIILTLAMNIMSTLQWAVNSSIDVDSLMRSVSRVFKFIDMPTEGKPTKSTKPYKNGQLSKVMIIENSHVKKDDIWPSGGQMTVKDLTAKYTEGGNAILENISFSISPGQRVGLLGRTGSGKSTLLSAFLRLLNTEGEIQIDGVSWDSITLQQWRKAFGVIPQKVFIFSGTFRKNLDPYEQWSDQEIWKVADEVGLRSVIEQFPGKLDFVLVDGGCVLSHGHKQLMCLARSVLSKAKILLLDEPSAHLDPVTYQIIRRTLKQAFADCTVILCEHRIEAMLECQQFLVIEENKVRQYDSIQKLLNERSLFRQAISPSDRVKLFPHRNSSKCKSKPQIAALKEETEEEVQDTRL
For the molecule `Cc1ccc(C2NCCn3c(-c4ccccc4)c4c(=O)n(C)c(=O)n(C)c4c32)o1` (racemic) [Example 1.1, 1,3-Dimethyl-10-(5-methylfuran-2-yl)-5-phenyl-7,8,9,10-tetrahydropyrazino[1′,2′:1,2]pyrrolo[3,4-d]pyrimidine-2,4(1H,3H)-dione], the IC50 (as a rule, the concentration that inhibits the measured activity by half) was 4.64 µM. The result for `Cc1ccc(C2OCCn3c(-c4ccccc4)c4c(=O)n(C)c(=O)n(C)c4c32)o1` (racemic) [Example 4.1, 1,3-Dimethyl-10-(5-methylfuran-2-yl)-5-phenyl-7,8-dihydro-1H-pyrimido[4′,5′:3,4]pyrrolo[2,1-c][1,4]oxazine-2,4(3H,10H)-dione] reads 4.23 µM; that for `Cc1ccc([C@H]2NCCn3c(-c4ccccc4)c4c(=O)n(C)c(=O)n(C)c4c32)o1` (single isomer, unassigned) [Example 1.3], > 30 µM; that for `Cn1c(=O)c2c(-c3ccccc3)n3c(c2n(C)c1=O)C(c1nc(C(F)(F)F)cs1)NCC3` (single isomer, unassigned) [Example 2.4, 1,3-Dimethyl-5-phenyl-10-(4-(trifluoromethyl)thiazol-2-yl)-7,8,9,10-tetrahydropyrazino[1′,2′:1,2]pyrrolo[3,4-d]pyrimidine-2,4(1H,3H)-dione], 4.98 µM. As for `Cn1c(=O)c2c(-c3ccccc3)n3c(c2n(C)c1=O)C(C1CCCCC1)NCC3` (single isomer, unassigned) [Example 2.6, 10-Cyclohexyl-1,3-dimethyl-5-phenyl-7,8,9,10-tetrahydropyrazino[1′,2′:1,2]pyrrolo[3,4-d]pyrimidine-2,4(1H,3H)-dione], the figure is 7.62 µM. As for `Cn1c(=O)c2c(-c3cccc(C#N)c3)n3c(c2n(C)c1=O)C(c1ccc(Cl)o1)NCC3` (single isomer, unassigned) [Example 2.9, 3-(10-(5-chlorofuran-2-yl)-1,3-dimethyl-2,4-dioxo-1,2,3,4,7,8,9,10-octahydropyrazino[1′,2′:1,2]pyrrolo[3,4-d]pyrimidin-5-yl)benzonitrile], the figure is 0.59 µM.

In the case of `Cc1ccc(C2OCCn3c(-c4ccccc4)c4c(=O)n(C)c(=O)n(C)c4c32)o1` (single isomer, unassigned) [Example 4.2, 1,3-dimethyl-10-(5-methylfuran-2-yl)-5-phenyl-7,8-dihydro-1H-pyrimido[4′,5′:3,4]pyrrolo[2,1-c][1,4]oxazine-2,4(3H,10H)-dione], the IC50 was > 30 µM.

`Cc1ccc(C2OCCn3c(-c4ccccc4)c4c(=O)n(C)c(=O)n(C)c4c32)o1` (single isomer, unassigned) [Example 4.3, 1,3-dimethyl-10-(5-methylfuran-2-yl)-5-phenyl-7,8-dihydro-1H-pyrimido[4′,5′:3,4]pyrrolo[2,1-c][1,4]oxazine-2,4(3H,10H)-dione]: inhibition was half-maximal at 3.16 µM (IC50).

In turn, `Cn1c(=O)c2c(-c3nc(CO)cs3)n3c(c2n(C)c1=O)C(c1ccc(Cl)o1)O[C@@H](CO)C3` (single isomer, unassigned) [Example 7.1a, 10-(5-Chlorofuran-2-yl)-8-(hydroxymethyl)-5-(4-(hydroxymethyl)thiazol-2-yl)-1,3-dimethyl-7,8-dihydro-1H-pyrimido[4′,5′:3,4]pyrrolo[2,1-c][1,4]oxazine-2,4(3H,10H)-dione] came in with an IC50 of 0.61 µM. As for `Cn1c(=O)c2c(-c3cccc(C#N)c3)n3c(c2n(C)c1=O)[C@@H](c1nc(Cl)cs1)O[C@H](CO)C3` (single isomer, unassigned) [Example 9b, 3-(10-(4-Chlorothiazol-2-yl)-8-(hydroxymethyl)-1,3-dimethyl-2,4-dioxo-2,3,4,7,8,10-hexahydro-1H-pyrimido[4′,5′:3,4]pyrrolo[2,1-c][1,4]oxazin-5-yl)benzonitrile], the figure is 8.06 µM; as for `Cn1c(=O)c2c(-c3cccc(C#N)c3)n3c(c2n(C)c1=O)[C@H](c1ccc(Cl)o1)O[C@@H](CO)C3` (stereo in doubt) [Example 6.1, 3-(10-(5-chlorofuran-2-yl)-8-(hydroxymethyl)-1,3-dimethyl-2,4-dioxo-2,3,4,7,8,10-hexahydro-1H-pyrimido[4′,5′:3,4]pyrrolo[2,1-c][1,4]oxazin-5-yl)benzonitrile], 0.24 µM; as for `Cc1csc(-c2c3c(=O)n(C)c(=O)n(C)c3c3n2C[C@H](CO)O[C@H]3c2ccc(Cl)o2)n1` (stereo in doubt) [Example 7.0a, 10-(5-chlorofuran-2-yl)-8-(hydroxymethyl)-1,3-dimethyl-5-(4-methylthiazol-2-yl)-7,8-dihydro-1H-pyrimido[4′,5′:3,4]pyrrolo[2,1-c][1,4]oxazine-2,4(3H,10H)-dione], 0.09 µM. As for `Cn1c(=O)c2c(-c3cccc(Cl)c3)n3c(c2n(C)c1=O)[C@H](c1nc(Cl)cs1)O[C@@H](CO)C3` (stereo in doubt) [Example 8.0a, 5-(3-Chlorophenyl)-10-(4-chlorothiazol-2-yl)-8-(hydroxymethyl)-1,3-dimethyl-7,8-dihydro-1H-pyrimido[4′,5′:3,4]pyrrolo[2,1-c][1,4]oxazine-2,4(3H,10H)-dione], the figure is 0.07 µM; as for `Cn1c(=O)c2c(-c3cccc(Cl)c3)n3c(c2n(C)c1=O)[C@H](c1ccc(Cl)o1)O[C@@H](CO)C3` (stereo in doubt) [Example 8.1a, 10-(5-Chlorofuran-2-yl)-5-(3-chlorophenyl)-8-(hydroxymethyl)-1,3-dimethyl-7,8-dihydro-1H-pyrimido[4′,5′:3,4]pyrrolo[2,1-c][1,4]oxazine-2,4(3H,10H)-dione], 0.12 µM. Regarding `Cc1cccc(-c2c3c(=O)n(C)c(=O)n(C)c3c3n2C[C@H](C)O[C@H]3c2ccc(Cl)o2)c1` (stereo in doubt) [Example 12.1, 10-(5-chlorofuran-2-yl)-1,3,8-trimethyl-5-(m-tolyl)-7,8-dihydro-1H-pyrimido[4′,5′:3,4]pyrrolo[2,1-c][1,4]oxazine-2,4(3H,10H)-dione], it took 5.07 µM to reach half-maximal inhibition (IC50). In turn, `COC[C@@H]1Cn2c(-c3cccc(Cl)c3)c3c(=O)n(C)c(=O)n(C)c3c2[C@H](c2ccc(Cl)o2)O1` (stereo in doubt) [Example 12.2, 10-(5-chlorofuran-2-yl)-5-(3-chlorophenyl)-8-(methoxymethyl)-1,3-dimethyl-7,8-dihydro-1H-pyrimido[4′,5′:3,4]pyrrolo[2,1-c][1,4]oxazine-2,4(3H,10H)-dione] displayed an IC50 of 0.24 µM. As for `CN(C)C[C@@H]1Cn2c(-c3cccc(Cl)c3)c3c(=O)n(C)c(=O)n(C)c3c2[C@H](c2ccc(Cl)o2)O1` (stereo in doubt) [Example 12.4, 10-(5-chlorofuran-2-yl)-5-(3-chlorophenyl)-8-((dimethylamino)methyl)-1,3-dimethyl-7,8-dihydro-1H-pyrimido[4′,5′:3,4]pyrrolo[2,1-c][1,4]oxazine-2,4(3H,10H)-dione], the figure is 0.54 µM. The result for `Cc1ccc([C@@H]2NCCn3c(-c4ccccc4)c4c(=O)n(C)c(=O)n(C)c4c32)o1` [Example 1.2, (R)-1,3-Dimethyl-10-(5-methylfuran-2-yl)-5-phenyl-7,8,9,10-tetrahydropyrazino[1′,2′:1,2]pyrrolo[3,4-d]pyrimidine-2,4(1H,3H)-dione] reads 1.58 µM. As for `Cn1c(=O)c2c(-c3ccccc3)n3c(c2n(C)c1=O)C(c1nccs1)NCC3` (stereo not shown) [Example 1.7, 1,3-Dimethyl-5-phenyl-10-(thiazol-2-yl)-7,8,9,10-tetrahydropyrazino[1′,2′:1,2]pyrrolo[3,4-d]pyrimidine-2,4(1H,3H)-dione], the figure is 5.42 µM.

(Values after patent US9303035B2, “Substituted pyrazino[1′,2′:1,2]pyrrolo[3,4-d]pyrimidines, pyrimido[4′,5′:3,4]pyrrolo[2,1-c][1,4]oxazines and pyrimido[4′,5′:3,4]pyrrolo[1,2-d][1,4]oxazepines for inhibiting the CFTR channel” (Novartis AG, priority 2012, dated 2016).)
